# Test results: PMC6028563, “Probing Substituents in the 1- and 3-Position: Tetrahydropyrazino-Annelated Water-Soluble Xanthine Derivatives as Multi-Target Drugs With Potent Adenosine Receptor Antagonistic Activity” (Frontiers in Chemistry, 2018)
# Experiments:
# recombinant human MAO-B = biological target: T1, recombinant human MAO-B (Homo sapiens, UniProt P27338); assay: Monoamine oxidase assay (Amplex Red), MAO-B; assay type: biochemical; conditions: for inhibition at 10 µM: at 10,000 nM (10 μM), read-out: % inhibition at indicated concentration, Human MAO-B; for IC50: n = 3, read-out: IC50 ± SEM, Human MAO-B
# T1 construct: purchased Sigma-Aldrich M7441; host or cells: baculovirus-infected insect cells
# T1 sequence (P27338 1-520): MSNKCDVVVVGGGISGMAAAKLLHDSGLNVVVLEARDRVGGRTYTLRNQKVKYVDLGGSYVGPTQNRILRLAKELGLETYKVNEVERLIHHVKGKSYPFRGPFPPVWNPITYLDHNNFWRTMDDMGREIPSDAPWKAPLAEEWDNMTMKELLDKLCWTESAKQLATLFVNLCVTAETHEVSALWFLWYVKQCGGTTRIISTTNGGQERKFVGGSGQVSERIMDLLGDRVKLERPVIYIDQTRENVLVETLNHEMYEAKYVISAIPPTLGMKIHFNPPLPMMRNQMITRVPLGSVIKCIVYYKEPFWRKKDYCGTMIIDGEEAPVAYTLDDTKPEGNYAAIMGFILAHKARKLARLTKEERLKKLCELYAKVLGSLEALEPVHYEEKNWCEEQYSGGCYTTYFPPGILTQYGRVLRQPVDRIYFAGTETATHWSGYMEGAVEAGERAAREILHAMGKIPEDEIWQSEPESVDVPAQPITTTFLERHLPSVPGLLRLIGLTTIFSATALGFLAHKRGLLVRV
# Outline: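 Inhibition was measured with an Amplex Red monoamine oxidase assay, using human MAO-A and MAO-B produced recombinantly in baculovirus-infected insect cells. For rat MAO-B, liver mitochondria-enriched fractions from male Sprague Dawley rats served as enzyme source.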
# human A2B AR = biological target: T2, human A2B AR (Homo sapiens, UniProt P29275); assay: Radioligand binding assay at human A2B AR vs. [^3H]PSB-603; conditions: for Ki: CHO cell membranes, n = 2 (n = 3 where marked a), read-out: Ki ± SEM, A2B vs. [^3H]PSB-603; for inhibition at 1 µM: at 1,000 nM; for inhibition at 1 µM / inhibition at 0.1 µM: read-out: % inhibition of radioligand binding at indicated concentration, A2B vs. [^3H]PSB-603; for inhibition at 0.1 µM: at 100 nM
# T2 construct: expressed in transfected cells; host or cells: CHO cells
# T2 sequence (P29275 1-332): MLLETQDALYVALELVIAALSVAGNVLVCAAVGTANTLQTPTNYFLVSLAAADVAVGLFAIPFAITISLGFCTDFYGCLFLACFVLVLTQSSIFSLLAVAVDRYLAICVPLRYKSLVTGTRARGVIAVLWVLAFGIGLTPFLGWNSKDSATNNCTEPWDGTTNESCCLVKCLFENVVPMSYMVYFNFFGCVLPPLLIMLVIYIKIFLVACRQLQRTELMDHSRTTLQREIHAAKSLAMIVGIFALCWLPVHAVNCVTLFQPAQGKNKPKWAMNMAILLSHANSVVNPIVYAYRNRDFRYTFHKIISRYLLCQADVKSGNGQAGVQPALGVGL
# Outline: (§1)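 Competition binding; rat A1: brain cortex membranes; rat A2A: brain striatum membranes; human A1/A2A/A2B/A3: membranes from CHO cells each expressing one human subtype. Affinity only, no functional testing.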
# rat A1 AR = biological target: T3, rat A1 AR (Rattus norvegicus, UniProt P25099); assay: Radioligand binding assay at rat A1 AR (rat brain cortex) vs. [^3H]CCPA; conditions: rat (r); rat brain cortex; n = 3
# T3 construct: A1 ARs of rat brain cortical membrane; from tissue; host or cells: rat brain cortex membranes
# T3 sequence (P25099 1-326): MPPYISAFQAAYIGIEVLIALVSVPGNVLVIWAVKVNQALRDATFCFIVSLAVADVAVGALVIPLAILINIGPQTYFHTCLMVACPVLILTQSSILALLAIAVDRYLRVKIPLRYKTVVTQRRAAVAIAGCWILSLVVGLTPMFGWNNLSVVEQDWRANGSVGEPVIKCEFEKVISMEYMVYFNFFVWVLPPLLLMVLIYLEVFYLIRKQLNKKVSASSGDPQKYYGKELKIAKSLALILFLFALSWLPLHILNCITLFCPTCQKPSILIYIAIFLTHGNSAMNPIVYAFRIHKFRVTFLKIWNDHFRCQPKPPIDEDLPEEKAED
# Outline: as §1
# human A1 AR = biological target: T4, human A1 AR (Homo sapiens, UniProt P30542); assay: Radioligand binding assay at human A1 AR vs. [^3H]CCPA; conditions: for Ki: human (h), CHO cell membranes, n = 3; for selectivity for the human A1 vs. the human A2A AR: ratio of Ki values, human receptors
# T4 construct: expressed in transfected cells; host or cells: CHO cells
# T4 sequence (P30542 1-326): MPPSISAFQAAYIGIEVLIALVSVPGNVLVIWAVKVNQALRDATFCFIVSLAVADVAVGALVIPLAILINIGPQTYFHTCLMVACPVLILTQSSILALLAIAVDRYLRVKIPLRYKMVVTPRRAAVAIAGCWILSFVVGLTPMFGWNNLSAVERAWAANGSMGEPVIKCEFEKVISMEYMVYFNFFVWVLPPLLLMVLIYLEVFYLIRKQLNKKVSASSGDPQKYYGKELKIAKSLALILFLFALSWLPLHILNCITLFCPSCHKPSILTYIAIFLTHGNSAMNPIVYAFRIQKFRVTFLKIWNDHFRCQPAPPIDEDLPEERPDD
# Outline: as §1
# rat A2A AR = biological target: T5, rat A2A AR (Rattus norvegicus, UniProt P30543); assay: Radioligand binding assay at rat A2A AR (rat brain striatum) vs. [^3H]MSX-2; conditions: rat (r); for Ki: rat brain striatum, n = 3, read-out: Ki ± SEM, A2A vs. [^3H]MSX-2; for % inhibition of radioligand binding at indicated concentration, A2A vs. [^3H]MSX-2: at 1,000 nM
# T5 construct: A2A ARs of rat brain striatal membrane preparations; from tissue; host or cells: rat brain striatum membranes
# T5 sequence (P30543 whole entry): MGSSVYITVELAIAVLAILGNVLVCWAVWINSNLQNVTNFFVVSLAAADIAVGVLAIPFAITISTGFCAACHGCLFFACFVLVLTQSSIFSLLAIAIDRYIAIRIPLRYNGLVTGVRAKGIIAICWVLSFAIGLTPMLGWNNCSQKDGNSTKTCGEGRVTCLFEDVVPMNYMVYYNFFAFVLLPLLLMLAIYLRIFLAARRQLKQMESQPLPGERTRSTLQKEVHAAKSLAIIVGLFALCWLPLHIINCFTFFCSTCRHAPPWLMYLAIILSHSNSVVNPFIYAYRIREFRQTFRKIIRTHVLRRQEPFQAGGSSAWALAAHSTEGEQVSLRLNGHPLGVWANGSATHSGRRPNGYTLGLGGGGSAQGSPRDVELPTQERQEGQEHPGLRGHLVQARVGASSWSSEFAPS
# Outline: as §1
SMILES,inhibition at 10 µM (recombinant human MAO-B) [%],IC50 (recombinant human MAO-B) [µM],Ki (human A2B AR) [µM],inhibition at 1 µM (human A2B AR) [%],Ki (rat A1 AR) [µM],Ki (human A1 AR) [µM],selectivity for the human A1 vs. the human A2A AR (human A1 AR) [fold],Ki (rat A2A AR) [µM],"% inhibition of radioligand binding at indicated concentration, A2A vs. [^3H]MSX-2 (rat A2A AR) [%]",inhibition at 0.1 µM (human A2B AR) [%]
"CCn1c(=O)c2c(nc3n2CCN(Cc2ccccc2Br)C3)n(C)c1=O [Compound 14a, 8-(2-bromobenzyl)-3-ethyl-1-methyl-6,7,8,9-tetrahydropyrazino[2,1-f]purine-2,4(1H,3H)-dione]",37,> 10,> 1,18,0.123 ± 0.034,0.0417 ± 0.0083,> 10,0.408 ± 0.09,,
"CCn1c(=O)c2c(nc3n2CCN(Cc2cccc(Br)c2)C3)n(C)c1=O [Compound 14b, 8-(3-bromobenzyl)-3-ethyl-1-methyl-6,7,8,9-tetrahydropyrazino[2,1-f]purine-2,4(1H,3H)-dione]",34,> 10,> 1,9,0.0288 ± 0.0015,0.0707 ± 0.0123,,1.14,,
"CCn1c(=O)c2c(nc3n2CCN(Cc2ccc(Br)cc2)C3)n(C)c1=O [Compound 14c, 8-(4-bromobenzyl)-3-ethyl-1-methyl-6,7,8,9-tetrahydropyrazino[2,1-f]purine-2,4(1H,3H)-dione]",,1.63,> 1,1,0.156 ± 0.021,1.35,,> 1,35,
"CCn1c(=O)c2c(nc3n2CCN(Cc2ccccc2C(F)(F)F)C3)n(C)c1=O [Compound 14d, 3-ethyl-1-methyl-8-(2-(trifluoromethyl)benzyl)-6,7,8,9-tetrahydropyrazino[2,1-f]purine-2,4(1H,3H)-dione]",49,≥ 10,> 1,2,0.114 ± 0.015,0.244 ± 0.074,,> 1,20,
"CCn1c(=O)c2c(nc3n2CCN(Cc2cccc(C(F)(F)F)c2)C3)n(C)c1=O [Compound 14e, 3-ethyl-1-methyl-8-(3-(trifluoromethyl)benzyl)-6,7,8,9-tetrahydropyrazino[2,1-f]purine-2,4(1H,3H)-dione]",> 50,< 10,> 0.1,,0.0491 ± 0.0062,0.156 ± 0.049,,0.708 ± 0.025,,2
"CCn1c(=O)c2c(nc3n2CCN(Cc2cccc(F)c2)C3)n(C)c1=O [Compound 14g, 3-ethyl-8-(3-fluorobenzyl)-1-methyl-6,7,8,9-tetrahydropyrazino[2,1-f]purine-2,4(1H,3H)-dione]",48,≥ 10,> 0.1,,0.0594 ± 0.0077,0.0853 ± 0.0055,,> 1,18,15
"CCn1c(=O)c2c(nc3n2CCN(Cc2cc(Cl)ccc2Cl)C3)n(C)c1=O [Compound 14j, 8-(2,5-dichlorobenzyl)-3-ethyl-1-dimethyl-6,7,8,9-tetrahydropyrazino[2,1-f]purine-2,4(1H,3H)-dione]",,3.98,> 1,2,0.0369 ± 0.0061,0.391 ± 0.077,,0.617 ± 0.114,,
"CCn1c(=O)c2c(nc3n2CCN(Cc2cccc(C(F)(F)F)c2F)C3)n(C)c1=O [Compound 14l, 3-ethyl-8-(2-fluoro-3-(trifluoromethyl)benzyl)-1-methyl-6,7,8,9-tetrahydropyrazino[2,1-f]purine-2,4(1H,3H)-dione]",65,< 10,> 1,8,0.236 ± 0.057,0.495 ± 0.08,,0.667 ± 0.068,,
"CCn1c(=O)c2c(nc3n2CCN(Cc2cc(C(F)(F)F)ccc2Cl)C3)n(C)c1=O [Compound 14m, 8-(2-chloro-5-(trifluoromethyl)benzyl)-3-ethyl-1-methyl-6,7,8,9-tetrahydropyrazino[2,1-f]purine-2,4(1H,3H)-dione]",,1.43,> 1,3,0.0762 ± 0.009,0.0559 ± 0.0083,16,0.592 ± 0.028,,
"CCn1c(=O)c2c(nc3n2CCN(Cc2cc(Br)ccc2F)C3)n(C)c1=O [Compound 14o, 8-(5-bromo-2-fluorobenzyl)-3-ethyl-1-methyl-6,7,8,9-tetrahydropyrazino[2,1-f]purine-2,4(1H,3H)-dione]",,3.07,> 1,11,0.036 ± 0.0184,0.116 ± 0.027,,0.88 ± 0.174,,
"CCn1c(=O)c2c(nc3n2CCN(Cc2cccc(C(F)(F)F)c2)C3)n(CC)c1=O [Compound 15g, 1,3-diethyl-8-(3-(trifluoromethyl)benzyl)-6,7,8,9-tetrahydropyrazino[2,1-f]purine-2,4(1H,3H)-dione]",10,> 10,> 1,27,0.03 ± 0.0057,0.0848 ± 0.0024,,1.03,,
"CCn1c(=O)c2c(nc3n2CCN(Cc2cc(C(F)(F)F)ccc2F)C3)n(CC)c1=O [Compound 15j, 1,3-diethyl-8-(2-fluoro-5-(trifluoromethyl)benzyl)-6,7,8,9-tetrahydropyrazino[2,1-f]purine-2,4(1H,3H)-dione]",58,< 10,> 1,27,0.124 ± 0.021,0.0394 ± 0.0074,,0.6 ± 0.054,,
